Where two headings read alike, the source gives them in different places.
Columns and labels:
[1] = tested on: N87 (human gastric carcinoma derived from metastatic liver site); assay: Cytotoxicity assay for payloads (MTS), N87 cells; assay type: cell-based
Method: (§1) Cancer cell lines were obtained from ATCC (Manassas, Va.). N87 (human gastric carcinoma derived from metastatic liver site). HL60 (leukemia), A375 (melanoma) and HUVEC (human umbilical vein endothelial cells). were grown in RPMI 1640 media. All media were supplemented with 10% fetal bovine serum, 1% sodium pyruvate, and 1% L-glutamine (Invitrogen, Grand Island, N.Y.). Human umbilical vein endothelial cells (HUVEC) were obtained from Lonza (Allendale, N.J.) and maintained in EGM2 media supplemented with EGM-2 SingleQuots (Lonza # CC-4176). All cells were maintained in a humidified incubator (37° C., 5% CO2).
(§2) Cells in 100 μl medium were cultured in a 96-well plate. Cancer cell lines treated with the indicated compounds by adding 50 μl of 3× stocks in duplicate at 10 concentrations. Cells were incubated with compounds for four days, then 30 μl of CellTiter® 96 AQueous One MTS Solution (Promega Cat # G3582) was added to the cells, incubated 1.5 hr at 37° C., then absorbance measured at 490 nm on a Victor plate reader (Perkin Elmer, Waltham, Mass.). Relative cell viability was determined as a percentage of untreated control wells. IC50 values were calculated using four parameter logistic model #203 with XLfit v4.2 (IDBS, Guildford, Surry, UK).

HL60 (leukemia) = assay: Cytotoxicity assay for payloads (MTS), HL-60 cells; assay type: cell-based; conditions: Homo sapiens, 96 h, incubated with compounds for four days, MTS absorbance 490 nm
Method: as §1, §2

[2] = Homo sapiens, 96 h, N87 cells, incubated with compounds for four days, MTS absorbance 490 nm, read-out: N87 IC50

SMILES	IC50 [1, 2] [nM]	also measured
O=C(c1ccc(C(=O)N2C[C@@H](CCl)c3c2cc(O)c2ccccc32)o1)N1C[C@@H](CCl)c2c1cc(O)c1ccccc21 [Compound 13, (S)-furan-2,5-diylbis(((S)-1-(chloromethyl)-5-hydroxy-1H-benzo[e]indol-3(2H)-yl)methanone)]	0.138	IC50 (HL60 (leukemia)): 0.014 nM
O=C(c1cncc(C(=O)N2C[C@@H](CCl)c3c2cc(O)c2ccccc32)c1)N1C[C@@H](CCl)c2c1cc(O)c1ccccc21 [Compound 26, (S)-pyridine-3,5-diylbis(((S)-1-(chloromethyl)-5-hydroxy-1H-benzo[e]indol-3(2H)-yl)methanone)]	≥ 10	
O=C(c1csc(C(=O)N2C[C@@H](CCl)c3c2cc(O)c2ccccc32)c1)N1C[C@@H](CCl)c2c1cc(O)c1ccccc21 [Compound 35, (S)-thiophene-2,4-diylbis(((S)-1-(chloromethyl)-5-hydroxy-1H-benzo[e]indol-3(2H)-yl)methanone)]	1.21	
Cn1c(C(=O)N2C[C@@H](CCl)c3c2cc(O)c2ccccc32)ccc1C(=O)N1C[C@@H](CCl)c2c1cc(O)c1ccccc21 [Compound 38, (S)-(1-methyl-1H-pyrrole-2,5-diyl)bis(((S)-1-(chloromethyl)-5-hydroxy-1H-benzo[e]indol-3(2H)-yl)methanone)]	≥ 10	
CC(=O)Oc1cc2c(c3ccccc13)[C@H](CCl)CN2C(=O)CNCC(=O)N1C[C@@H](CCl)c2c1cc(OC(C)=O)c1ccccc21 [Compound 53, Acetic acid (S)-3-{2-[2-((S)-5-acetoxy-1-chloromethyl-1,2-dihydro-benzo[e]indol-3-yl)-2-oxo-ethylamino]-acetyl}-1-chloromethyl-2,3-dihydro-1H-benzo[e]indol-5-1 ester]		IC50 (HL60 (leukemia)): 0.012 nM
O=C(N[C@@H](CCC(=O)N1C[C@@H](CCl)c2c1cc(O)c1ccccc21)C(=O)N1C[C@@H](CCl)c2c1cc(O)c1ccccc21)OCC1c2ccccc2-c2ccccc21 [Compound 60, [(S)-1-((S)-1-Chloromethyl-5-hydroxy-1,2-dihydro-benzo[e]indole-3-carbonyl)-4-((S)-1-chloromethyl-5-hydroxy-1,2-dihydro-benzo[e]indol-3-yl)-4-oxo-butyl]-carbamic acid 9H-fluoren-9-ylmethyl ester]	≥ 10	
CC(=O)Oc1cc2c(c3ccccc13)[C@H](CCl)CN2C(=O)c1ccc(C(=O)N2C[C@@H](CCl)c3c2cc(OC(C)=O)c2ccccc32)[nH]1 [Compound 68, (1S,1′S)-3,3′-(1H-pyrrole-2,5-dicarbonyl)bis(1-(chloromethyl)-2,3-dihydro-1H-benzo[e]indole-5,3-diyl)diacetate]	0.033	
CC(=O)Oc1cc2c(c3ccccc13)[C@H](CCl)CN2C(=O)c1cnc(C(=O)N2C[C@@H](CCl)c3c2cc(OC(C)=O)c2ccccc32)s1 [Compound 71, (1S,1′S)-3,3′-(thiazole-2,5-dicarbonyl)bis(1-(chloromethyl)-2,3-dihydro-1H-benzo[e]indole-5,3-diyl)diacetate]	0.085	
Cc1c[nH]c2c(O)cc3c(c12)[C@H](CCl)CN3C(=O)c1ccc(C(=O)N2C[C@@H](CCl)c3c2cc(O)c2ccccc32)s1 [Compound 117, ((S)-1-Chloromethyl-5-hydroxy-1,2-dihydro-benzo[e]indol-3-yl)-[5-((S)-1-chloromethyl-5-hydroxy-8-methyl-1,6-dihydro-2H-pyrrolo[3,2-e]indole-3-carbonyl)-thiophen-2-yl]methanone]	0.004	
COC(=O)Oc1cc2c(c3ccccc13)[C@H](CCl)CN2C(=O)c1ccc(C(=O)N2C[C@@H](CCl)c3c2cc(O)c2ccccc32)s1 [Compound 119, (S)-1-(chloromethyl)-3-(5-((S)-1-(chloromethyl)-5-hydroxy-2,3-dihydro-1H-benzo[e]indole-3-carbonyl)thiophene-2-carbonyl)-2,3-dihydro-1H-benzo[e]indol-5-yl methyl carbonate]	0.004	
CN(C)CCNC(=O)Oc1cc2c(c3ccccc13)[C@H](CCl)CN2C(=O)c1ccc(C(=O)N2C[C@@H](CCl)c3c2cc(O)c2ccccc32)s1 [Compound 123, (S)-1-(chloromethyl)-3-(5-((S)-1-(chloromethyl)-5-hydroxy-2,3-dihydro-1H-benzo[e]indole-3-carbonyl)thiophene-2-carbonyl)-2,3-dihydro-1H-benzo[e]indol-5-yl(2-(dimethylamino)ethyl)carbamate]		IC50 ([1]; Homo sapiens, 96 h, read-out: N87 IC50 (nM)): 0.003 nM
CNCCN(C)C(=O)Oc1cc2c(c3ccccc13)[C@H](CCl)CN2C(=O)c1ccc(C(=O)N2C[C@@H](CCl)c3c2cc(O)c2ccccc32)s1 [Compound 126, (S)-1-(chloromethyl)-3-(5-((S)-1-(chloromethyl)-5-hydroxy-2,3-dihydro-1H-benzo[e]indole-3-carbonyl)thiophene-2-carbonyl)-2,3-dihydro-1H-benzo[e]indol-5-ylmethyl(2-(methylamino)ethyl)carbamate]		IC50 ([1]; N87 cells, incubated with compounds for four days, MTS absorbance 490 nm, read-out: N87 IC50): 0.004 nM
CC(=O)Oc1cc2c(c3ccccc13)[C@H](CCl)CN2C(=O)C12CCC(C(=O)N3C[C@@H](CCl)c4c3cc(O)c3ccccc43)(CC1)C2 [Compound 134, (1S)-1-(chloromethyl)-3-[(4-{[(1S)-1-(chloromethyl)-5-hydroxy-1,2-dihydro-3H-benzo[e]indol-3-yl]carbonyl}bicyclo[2.2.1]hept-1-yl)carbonyl]-2,3-dihydro-1H-benzo[e]indol-5-yl acetate]		IC50 (HL60 (leukemia)): 0.099 nM
O=C(CCc1ccc(CCC(=O)N2C[C@@H](CCl)c3c2cc(O)c2ccccc32)s1)N1C[C@@H](CCl)c2c1cc(O)c1ccccc21 [Compound 146, 3,3′-thiene-2,5-diylbis{1-[(1S)-1-(chloromethyl)-5-hydroxy-1,2-dihydro-3H-benzo[e]indol-3-yl]propan-1-one}]	3.1	
CC(=O)OC[C@H]1O[C@@H](Oc2cc3c(c4ccccc24)[C@H](CCl)CN3C(=O)c2ccc(C(=O)N3C[C@@H](CCl)c4c3cc(O)c3ccccc43)s2)[C@H](OC(C)=O)[C@@H](OC(C)=O)[C@H]1OC(C)=O [Compound 153, (2R,3S,4S,5R,6S)-2-(acetoxymethyl)-6-(((S)-1-(chloromethyl)-3-(5-((S)-1-(chloromethyl)-5-hydroxy-2,3-dihydro-1H-benzo[e]indole-3-carbonyl)thiophene-2-carbonyl)-2,3-dihydro-1H-benzo[e]indol-5-yl)oxy)tetrahydro-2H-pyran-3,4,5-triyl triacetate]	4.47	
CC(=O)Oc1cc2c(c3ccccc13)[C@H](CCl)CN2C(=O)Cc1ccc(CC(=O)N2C[C@@H](CCl)c3c2cc(OC(C)=O)c2ccccc32)s1 [Compound 160, thiene-2,5-diylbis[(1-oxoethane-2,1-diyl)(1S)-1-(chloromethyl)-1,2-dihydro-3H-benzo[e]indole-3,5-diyl] diacetate]	12.7	
O=C(O)[C@H]1O[C@@H](Oc2cc3c(c4ccccc24)[C@H](CCl)CN3C(=O)c2ccc(C(=O)N3C[C@@H](CCl)c4c3cc(O)c3ccccc43)s2)[C@H](O)[C@@H](O)[C@@H]1O [Compound 164, (2S,3S,4S,5R,6S)-6-(((S)-1-(chloromethyl)-3-(5-((S)-1-(chloromethyl)-5-hydroxy-2,3-dihydro-1H-benzo[e]indole-3-carbonyl)thiophene-2-carbonyl)-2,3-dihydro-1H-benzo[e]indol-5-yl)oxy)-3,4,5-trihydroxytetrahydro-2H-pyran-2-carboxylic acid]		IC50 (HL60 (leukemia)): 0.057 nM
CC(=O)Oc1cc2c(c3ccccc13)[C@H](CCl)CN2C(=O)[C@H]1C[C@@H](C(=O)N2C[C@@H](CCl)c3c2cc(OC(C)=O)c2ccccc32)C1 [Compound 168, cis-cyclobutane-1,3-diylbis[carbonyl(1S)-1-(chloromethyl)-1,2-dihydro-3H-benzo[e]indole-3,5-diyl] diacetate]		IC50 (HL60 (leukemia)): 0.097 nM
CC(=O)Oc1cc2c(c3ccccc13)[C@H](CCl)CN2C(=O)c1ccc(C(=O)N2C[C@@H](CCl)c3c2cc(O)c2ccccc32)s1 [Compound 170, (1S)-1-(chloromethyl)-3-[(5-{[(1S)-1-(chloromethyl)-5-hydroxy-1,2-dihydro-3H-benzo[e]indol-3-yl]carbonyl}thiophen-2-yl)carbonyl]-2,3-dihydro-1H-benzo[e]indol-5-yl acetate]	0.005	
CC(=O)Oc1cc2c(c3ccccc13)[C@H](CCl)CN2C(=O)[C@]12CCC[C@](C(=O)N3C[C@@H](CCl)c4c3cc(O)c3ccccc43)(C1)C2 [Compound 175, (1S)-1-(chloromethyl)-3-{[(1S,5S)-5-{[(1S)-1-(chloromethyl)-5-hydroxy-1,2-dihydro-3H-benzo[e]indol-3-yl]carbonyl}bicyclo[3.1.1]hept-1-yl]carbonyl}-2,3-dihydro-1H-benzo[e]indol-5-yl acetate]		IC50 (HL60 (leukemia)): 11.8 nM
CC(=O)Oc1cc2c(c3ccccc13)[C@H](CCl)CN2C(=O)C12C3C4C1C1C2C3C41C(=O)N1C[C@@H](CCl)c2c1cc(OC(C)=O)c1ccccc21 (stereo partly drawn) [Compound 181, pentacyclo[4.2.0.0~2,5~.0~3,8~.0~4,7~]octane-1,4-diylbis[carbonyl(1S)-1-(chloromethyl)-1,2-dihydro-3H-benzo[e]indole-3,5-diyl] diacetate]	0.005	
